The target of this experiment is T1, STAT6 (Homo sapiens, UniProt P42226).
T1 construct: stably transfected HaCaT keratinocyte cell line, which expresses NanoLuc luciferase reporter gene under the transcriptional control of the STAT6 responsive promoter; endogenous in cells; host or cells: HaCaT keratinocyte reporter cell line (stably transfected with a NanoLuc reporter)
T1 sequence (P42226 1-847): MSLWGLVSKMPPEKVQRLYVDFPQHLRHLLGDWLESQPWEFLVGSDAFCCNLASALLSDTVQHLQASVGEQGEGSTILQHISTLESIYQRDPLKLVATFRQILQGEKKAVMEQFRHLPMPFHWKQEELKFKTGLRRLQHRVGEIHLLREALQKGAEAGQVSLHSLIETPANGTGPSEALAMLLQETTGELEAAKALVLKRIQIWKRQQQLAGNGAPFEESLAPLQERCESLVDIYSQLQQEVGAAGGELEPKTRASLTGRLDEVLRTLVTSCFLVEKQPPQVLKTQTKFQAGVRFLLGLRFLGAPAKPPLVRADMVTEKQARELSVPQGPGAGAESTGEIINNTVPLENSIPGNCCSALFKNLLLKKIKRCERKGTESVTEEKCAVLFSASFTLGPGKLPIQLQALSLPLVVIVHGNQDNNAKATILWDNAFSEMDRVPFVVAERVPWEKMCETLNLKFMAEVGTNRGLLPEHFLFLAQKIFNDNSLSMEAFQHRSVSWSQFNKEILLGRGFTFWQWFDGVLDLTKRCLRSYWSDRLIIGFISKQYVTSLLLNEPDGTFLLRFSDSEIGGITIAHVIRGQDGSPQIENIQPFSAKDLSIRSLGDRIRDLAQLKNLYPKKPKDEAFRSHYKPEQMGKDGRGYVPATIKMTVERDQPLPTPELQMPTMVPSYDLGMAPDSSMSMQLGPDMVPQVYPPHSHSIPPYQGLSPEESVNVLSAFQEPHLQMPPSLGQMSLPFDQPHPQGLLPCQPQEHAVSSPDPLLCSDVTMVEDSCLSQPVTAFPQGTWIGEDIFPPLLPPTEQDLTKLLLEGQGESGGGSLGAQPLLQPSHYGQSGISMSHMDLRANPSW
Briefly: STAT6 Reporter Luciferase Assay (IL-13 stimulated HaCaT keratinocyte NanoLuc reporter cells). It counts as cell-based. Conditions: IL-13 stimulated HaCaT STAT6 NanoLuc reporter cells; read-out: Reporter EC50. A digest of the protocol: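 Cells were plated overnight, washed, exposed to compound for two hours, stimulated with IL-13 (0.12 nM final) for four hours at 37 °C, and then lysed with Nano-Glo substrate for 15 min before luminescence reading.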
Broadly, the EC50 is the midpoint of the concentration-response curve. Take `CC(C)n1nc(C(=O)NCc2ccc(NC(=O)N(C)C)cc2)c2c1CCN(c1ccc(C(=O)N3CCC4(CCC(=O)N4)CC3)cn1)C2` [Example 329, N-(4-(3,3-dimethylureido)benzyl)-1-isopropyl-5-(5-(2-oxo-1,8-diazaspiro[4.5]decane-8-carbonyl)pyridin-2-yl)-4,5,6,7-tetrahydro-1H-pyrazolo[4,3-c]pyridine-3-carboxamide]: the EC50 is 1050 nM.

`CC(C)n1nc(C(=O)NCc2ccc(NC(=O)N(C)C)cc2)c2c1CCN(c1ccc(C(=O)N3Cc4cncnc4C3)cn1)C2` [Example 408, 5-(5-(6,7-dihydro-5H-pyrrolo[3,4-d]pyrimidine-6-carbonyl)pyridin-2-yl)-N-(4-(3,3-dimethylureido)benzyl)-1-isopropyl-4,5,6,7-tetrahydro-1H-pyrazolo[4,3-c]pyridine-3-carboxamide]: the EC50 was 39 nM.

For the compound `CC(C)n1nc(C(=O)NCc2ccc(NC(=O)N3CCN(C)CC3)cc2)c2c1C(C(F)(F)F)CN(c1ccc(C(=O)N(C)C)cn1)C2` (racemic) [Example 701, rac-(R)-5-(5-(dimethylcarbamoyl)pyridin-2-yl)-1-isopropyl-N-(4-(4-methylpiperazine-1-carboxamido)benzyl)-7-(trifluoromethyl)-4,5,6,7-tetrahydro-1H-pyrazolo[4,3-c]pyridine-3-carboxamide], the EC50 was 0.4 nM.

`CC(C)n1nc(C(=O)NCc2ccc(NC(=O)N3CCN(C)CC3)cc2)c2c1C(C(F)(F)F)CN(c1ccc(C(=O)N(C)C)cn1)C2` (single isomer, unassigned) [Example 692, rel-(R or S)-5-(5-(dimethylcarbamoyl)pyridin-2-yl)-1-isopropyl-N-(4-(4-methylpiperazine-1-carboxamido)benzyl)-7-(trifluoromethyl)-4,5,6,7-tetrahydro-1H-pyrazolo[4,3-c]pyridine-3-carboxamide]: the EC50 came to 0.3 nM.

`CC(C)n1nc(C(=O)NCc2ccc(NC(=O)N(C)C)cc2)c2c1[C@@H](C)CN(c1ccc(C(=O)N(C)CC3CCN(Cc4ccccc4)CC3)cc1)C2` [Example 662, (S)-5-(4-(((1-benzylpiperidin-4-yl)methyl)(methyl)carbamoyl)phenyl)-N-(4-(3,3-dimethylureido)benzyl)-1-isopropyl-7-methyl-4,5,6,7-tetrahydro-1H-pyrazolo[4,3-c]pyridine-3-carboxamide]: the EC50 was 3 nM.

Take `CC(C)n1nc(C(=O)NCc2ccc(NC(=O)N3CC4(CN(C)C4)C3)c(F)c2)c2c1[C@@H](C)CN(c1ccc(C(=O)N(C)C)cc1)C2` [Example 641, (S)-5-(4-(dimethylcarbamoyl)phenyl)-N-(3-fluoro-4-(6-methyl-2,6-diazaspiro[3.3]heptane-2-carboxamido)benzyl)-1-isopropyl-7-methyl-4,5,6,7-tetrahydro-1H-pyrazolo[4,3-c]pyridine-3-carboxamide]: the EC50 was 5 nM.

For the compound `CC(C)n1nc(C(=O)NCc2ccc(NC(=O)N3CCN4CCC[C@@H]4C3)cc2)c2c1[C@@H](C)CN(c1ccc(C(=O)N(C)C)cn1)C2` [Example 691, (S)-5-(5-(dimethylcarbamoyl)pyridin-2-yl)-1-isopropyl-7-methyl-N-(4-((R)-octahydropyrrolo[1,2-a]pyrazine-2-carboxamido)benzyl)-4,5,6,7-tetrahydro-1H-pyrazolo[4,3-c]pyridine-3-carboxamide], the EC50 was found to be 1 nM.

As for `CC(C)n1nc(C(=O)NCc2ccc(NC(=O)N3CCN4CCCC[C@H]4C3)c(F)c2)c2c1[C@@H](C)CN(c1ccc(C(=O)N(C)C)cc1)C2` [Example 640, (S)-N-(4-(((S)-5-(4-(dimethylcarbamoyl)phenyl)-1-isopropyl-7-methyl-4,5,6,7-tetrahydro-1H-pyrazolo[4,3-c]pyridine-3-carboxamido)methyl)-2-fluorophenyl)octahydro-2H-pyrido[1,2-a]lpyrazine-2-carboxamide], the EC50 was 1 nM.

Source of the values: US20250320213A1, “Nitrogen-Containing Heterocyclic Compounds” (Pfizer Inc., priority 2024, published 2025).
